Results from the supplement of paper PMC10307832.

How the values were obtained:
Assay in all cases: relative viability (nuclei count vs DMSO), 5 days (fraction); higher = more cells survive
NCI-H2126 = test system: NCI-H2126
In short: (§1)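 Lung cancer cell lines were seeded in 1536-well plates and dosed by pin tool the next day, with either a single drug or a fixed anchor-drug dose combined with five library-drug doses (not always all listed) spaced in √10 steps. Five days later, one step fixed the cells and stained their nuclei (final 0.05% Triton X-100, 1% formaldehyde, 1 ug/ml Hoechst), and nuclei were counted on 4× images. Relative viability is the nuclei count in treated wells divided by the count in vehicle wells, and each value is the median of duplicate plates.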

NCI-H1793 = test system: NCI-H1793
In short: as §1

EPLC-272H = test system: EPLC-272H
In short: as §1

EKVX = test system: EKVX
In short: as §1

NCI-H1650 = test system: NCI-H1650
In short: as §1

NCI-H322M = test system: NCI-H322M
In short: as §1

SK-LU-1 = test system: SK-LU-1
In short: as §1

EMC-BAC-2 = test system: EMC-BAC-2
In short: as §1

NCI-H1651 = test system: NCI-H1651
In short: as §1

LCLC-103H = test system: LCLC-103H
In short: as §1

NCI-H2087 = test system: NCI-H2087
In short: as §1

SW 1573 = test system: SW 1573
In short: as §1

A-427 = test system: A-427
In short: as §1

201T = test system: 201T
In short: as §1

NCI-H596 = test system: NCI-H596
In short: as §1

COR-L23 = test system: COR-L23
In short: as §1

UMC-11 = test system: UMC-11
In short: as §1

NCI-H2023 = test system: NCI-H2023
In short: as §1

NCI-H358 = test system: NCI-H358
In short: as §1

NCI-H3122 = test system: NCI-H3122
In short: as §1

BEN = test system: BEN
In short: as §1

LXF-289 = test system: LXF-289
In short: as §1

`Oc1nc(-c2ccc(C(F)(F)F)cc2)nc2c1CSCC2` [XAV939] + Cc1nc(Nc2ncc(C(=O)Nc3c(C)cccc3Cl)s2)cc(N2CCN(CCO)CC2)n1 [Dasatinib] (partner 0.075 µM) was tested, and the relative viability (NCI-H2126; first compound 0.08 µM) was 0.544, the relative viability (NCI-H2126; first compound 0.253 µM) was 0.403 and the relative viability (NCI-H2126; first compound 0.8 µM) was 0.405. The relative viability (NCI-H2126; first compound 2.53 µM) was 0.33, the relative viability (NCI-H1793; first compound 0.08 µM) was 0.379 and the relative viability (NCI-H1793; first compound 0.253 µM) was 0.339. The relative viability (NCI-H1793; first compound 0.8 µM) was 0.399, the relative viability (NCI-H1793; first compound 2.53 µM) was 0.419 and the relative viability (EPLC-272H; first compound 0.08 µM) was 0.385. For the same molecule, the relative viability (EPLC-272H; first compound 0.253 µM) was 0.403, the relative viability (EPLC-272H; first compound 0.8 µM) was 0.355 and the relative viability (EPLC-272H; first compound 2.53 µM) was 0.247. It also gave a relative viability (EKVX; first compound 0.08 µM) of 0.444, a relative viability (EKVX; first compound 0.8 µM) of 0.486 and a relative viability (EKVX; first compound 2.53 µM) of 0.228. The relative viability (NCI-H1650; first compound 0.08 µM) was 0.331, the relative viability (NCI-H1650; first compound 0.253 µM) was 0.323 and the relative viability (NCI-H1650; first compound 0.8 µM) was 0.263. The relative viability (NCI-H1650; first compound 2.53 µM) was 0.288, the relative viability (NCI-H322M; first compound 0.08 µM) was 0.241 and the relative viability (NCI-H322M; first compound 0.253 µM) was 0.254. It also gave a relative viability (NCI-H322M; first compound 0.8 µM) of 0.227, a relative viability (NCI-H322M; first compound 2.53 µM) of 0.22 and a relative viability (SK-LU-1; first compound 0.08 µM) of 0.166. For the same molecule, the relative viability (SK-LU-1; first compound 0.253 µM) was 0.147, the relative viability (SK-LU-1; first compound 0.8 µM) was 0.211 and the relative viability (SK-LU-1; first compound 2.53 µM) was 0.188. For the same molecule, the relative viability (EMC-BAC-2; first compound 0.08 µM) was 0.321, the relative viability (EMC-BAC-2; first compound 0.253 µM) was 0.278 and the relative viability (EMC-BAC-2; first compound 0.8 µM) was 0.282. For the same molecule, the relative viability (EMC-BAC-2; first compound 2.53 µM) was 0.23, the relative viability (NCI-H1651; first compound 0.08 µM) was 0.389 and the relative viability (NCI-H1651; first compound 0.253 µM) was 0.366. It also gave a relative viability (NCI-H1651; first compound 0.8 µM) of 0.362, a relative viability (NCI-H1651; first compound 2.53 µM) of 0.401 and a relative viability (LCLC-103H; first compound 0.08 µM) of 0.633. For the same molecule, the relative viability (LCLC-103H; first compound 0.253 µM) was 0.553, the relative viability (LCLC-103H; first compound 0.8 µM) was 0.55 and the relative viability (LCLC-103H; first compound 2.53 µM) was 0.456. For the same molecule, the relative viability (NCI-H2087; first compound 0.08 µM) was 1.11, the relative viability (NCI-H2087; first compound 0.253 µM) was 0.623 and the relative viability (NCI-H2087; first compound 0.8 µM) was 0.891. The relative viability (NCI-H2087; first compound 2.53 µM) was 0.689, the relative viability (SW 1573; first compound 0.08 µM) was 0.605 and the relative viability (SW 1573; first compound 0.253 µM) was 0.506. The relative viability (SW 1573; first compound 0.8 µM) was 0.43, the relative viability (SW 1573; first compound 2.53 µM) was 0.241 and the relative viability (A-427; first compound 0.08 µM) was 0.838. It also gave a relative viability (A-427; first compound 0.253 µM) of 0.677, a relative viability (A-427; first compound 0.8 µM) of 0.667 and a relative viability (A-427; first compound 2.53 µM) of 0.557. The relative viability (201T; first compound 0.08 µM) was 0.432, the relative viability (201T; first compound 0.253 µM) was 0.385 and the relative viability (201T; first compound 0.8 µM) was 0.443. It also gave a relative viability (201T; first compound 2.53 µM) of 0.366, a relative viability (NCI-H596; first compound 0.08 µM) of 0.584 and a relative viability (NCI-H596; first compound 0.253 µM) of 0.549. The relative viability (NCI-H596; first compound 0.8 µM) was 0.708, the relative viability (NCI-H596; first compound 2.53 µM) was 0.563 and the relative viability (COR-L23; first compound 0.08 µM) was 0.461. For the same molecule, the relative viability (COR-L23; first compound 0.253 µM) was 0.424, the relative viability (COR-L23; first compound 0.8 µM) was 0.505 and the relative viability (COR-L23; first compound 2.53 µM) was 0.444. For the same molecule, the relative viability (UMC-11; first compound 0.08 µM) was 0.542, the relative viability (UMC-11; first compound 0.253 µM) was 0.396 and the relative viability (UMC-11; first compound 0.8 µM) was 0.427. For the same molecule, the relative viability (UMC-11; first compound 2.53 µM) was 0.408, the relative viability (NCI-H2023; first compound 0.08 µM) was 0.512 and the relative viability (NCI-H2023; first compound 0.253 µM) was 0.397. It also gave a relative viability (NCI-H2023; first compound 0.8 µM) of 0.334, a relative viability (NCI-H2023; first compound 2.53 µM) of 0.336 and a relative viability (NCI-H358; first compound 0.08 µM) of 0.16. For the same molecule, the relative viability (NCI-H358; first compound 0.253 µM) was 0.166, the relative viability (NCI-H358; first compound 0.8 µM) was 0.175 and the relative viability (NCI-H358; first compound 2.53 µM) was 0.172. It also gave a relative viability (NCI-H3122; first compound 0.08 µM) of 0.877, a relative viability (NCI-H3122; first compound 0.253 µM) of 0.786 and a relative viability (NCI-H3122; first compound 0.8 µM) of 0.789. For the same molecule, the relative viability (NCI-H3122; first compound 2.53 µM) was 0.181, the relative viability (BEN; first compound 0.08 µM) was 0.294 and the relative viability (BEN; first compound 0.253 µM) was 0.299. For the same molecule, the relative viability (BEN; first compound 0.8 µM) was 0.32, the relative viability (BEN; first compound 2.53 µM) was 0.287 and the relative viability (LXF-289; first compound 0.08 µM) was 0.179. It also gave a relative viability (LXF-289; first compound 0.253 µM) of 0.167, a relative viability (LXF-289; first compound 0.8 µM) of 0.178 and a relative viability (LXF-289; first compound 2.53 µM) of 0.139.
